Test results from patent publication US10736923B2, “Methods and compositions for generating chondrocyte lineage cells and/or cartilage like tissue” (UNIVERSITY HEALTH NETWORK, priority 2013, dated 2020).

Assays:
Assay type in all cases: cell-based, human
[1] = system: primitive streak-like mesoderm population; test: Paraxial mesoderm specification in monolayer culture, flow cytometry of cell surface markers; conditions: day 4 to day 6 with Dorsomorphin, bFGF, SB431542; read on day 15
Description: FIG. 2. Characterization of paraxial mesoderm derived from hPSCs. Flow cytometric analysis of day 5 mesoderm treated with no additional factors (0 DM, no FGF), FGF, 4 μM DM, or 4 μM DM+FGF. Day 5 profiles depict KDR and PDGFRa expression, a double-positive population (gated) indicates mesoderm that has cardiac potential (20). Treatment with FGF results in less PDGFRa expression on day 5. (B) Expression of cell surface markers CD73, CD105, and PDGFR-beta on mesoderm populations on day 15 of differentiation. […] Experimental cell treatments during day 4 to day 6 include the combination of Dorsomorphin, bFGF, TGFbeta inhibitor (SB431542) in the presence or absence of the wnt pathway inhibitor IWP2. Flow cytometric analyses of CD73 and CD105, on day 15 mesoderm populations derived as indicated. (D) Gene expression analyses of day 15 mesoderm populations derived in indicated factors. Nkx2.5 is a cardiac transcription factor, Meox1 and Nkx3.2 are paraxial mesoderm and somite transcription factors. (E) Micrographs depicting 1 day old micromasses and 1 week old micromasses derived from day 15 mesoderm populations as indicated. (F) Flow cytometric analysis of cardiac troponin T (cTnT) expression in 1 week old micromasses derived from day 15 mesoderms as indicated. […] To generate chondrocytes, it is essential to first specify this PS population to a paraxial mesoderm fate. Previous studies have shown that mesoderm populations that express cell surface markers often found on mesenchymal stem cells, CD73 and CD105, have chondrogenic potential (Hwang, Kim et al. 2006). The expression of these two cell surface markers, as well as the expression of transcription factors Meox1 and Nkx3.2 combined with the lack of expression of Nkx2.5 to monitor the emergence of a paraxial mesoderm population was used. Previous experiments in the mouse ESC model system have shown the importance of inhibiting the BMP signaling pathway in the context of FGF signaling to prevent the emergence of cardiac mesoderm and promote the development of paraxial mesoderm (Craft, Ahmed et al. 2013). […] Very few cells in untreated mesoderm conditions expressed CD73 and CD105 (7.46%, FIG. 2B). […] The changes in expression of these surface markers were accompanied by the upregulation of paraxial genes Meox1 and Nkx3.2 (FIG. 2C). […] Thus, in some cell lines, the efficiency of paraxial mesoderm specification may be improved in the presence of a Wnt pathway antagonist immediately following the PS mesoderm induction phase.

[2] = system: hPSC-derived articular chondrocytes; test: Response of hPSC-derived articular-like cartilage to IL1β
Description: FIG. 9. hPSC-derived articular-like cartilage respond appropriately to the pro-inflammatory molecule IL1β. (A) The experimental plan is depicted. Articular cartilage tissues were derived from hPSCs for 10 weeks in the presence of TGFβ3. Cartilage tissues (micromasses) were treated for two weeks (from week 10-12) with TGFβ3 or IL1β (10 ng/ml), as indicated. […] Values represent copy number mRNA relative to TBP (n=7). Error bars indicate s.e.m. (K) Histological analysis of 12-week tissues after treatments as indicated. Metachromatic toluidine blue staining indicates proteoglycans.
Access to an unlimited supply of hPSC-derived articular-like cartilage provides an opportunity to establish platforms to analyze the effects of pro-inflammatory cytokines such as […] (IL1beta), known to play a role in the early stages of osteoarthritis (OA). […] These enzymes cleave proteins found in cartilage extracellular matrix (ECM), such as collagens and aggrecans, which leads to the degradation of cartilage tissue. Significant upregulation of MMP13 and ADAMTS4 was observed only in the absence of TGFbeta3. ADAMTS5 was induced with or without TGFbeta3 present.

[3] = system: hPSC-derived paraxial mesoderm; test: Chondrocyte specification in micromass culture with TGFB3 or BMP4 (histology, scatter flow cytometry, qRT-PCR, immunostaining); conditions: for CILP2 expression / COL2A1 expression / PRG4 (lubricin) expression: 12 weeks of micromass culture, TGF agonist 10 ng/ml
Source text: FIG. 4. TGFB3 and BMP4 specify chondrocytes and cartilage-like tissues with articular cartilage and growth plate cartilage phenotypes. (A) Micrographs of 5 week old micromasses derived with TGFB3 or BMP4, 20× magnification. (B) Tissue histology (stained with toluidine blue) of 13 week cartilage tissues derived with TGFB3 or BMP4. […] (C) Flow cytometric analysis of forward and side cell scatter parameters of 3 week and 5 week old micromasses. Side scatter indicates cell granularity and forward cell scatter indicates cell size. (D) Comparison of hPSC-derived micromass tissues to fetal primary chondrocyte derived micromass tissues and the developing human fetal femur cartilage. Articular cartilage regions appear to have smaller cells in size compared to growth plate like regions, which contain cells which appear enlarged (hypertrophic). Cartilage tissues in micromass as well as in the fetal femur stain uniformly with the toluidine blue stain (images are pink/purple in color and indicate the presence of cartilage proteins). The BMP4-treated micromass tissues contain a large number of enlarged cells which is similar to the bottom panel of the fetal cartilage which represents a growth plate cartilage. TGFB3 treated micromass cultures contain fewer, if any, enlarged chondrocytes, and appear similar to the upper panel of the fetal cartilage which is the site of articular cartilage. (E) Micrograph using GDF5 instead of BMP4 to generate hypertrophic chondrocytes. (F) Histological analyses of cartilage tissues derived from hiPSCs stained with Toluidine blue after 12 weeks. (G,H) Immunohistochemical staining of hESC-derived cartilage tissues for type II Collagen (G, 8 week tissues), and lubricin (H, 12 week tissues).
FIG. 5. Gene expression analyses of chondrocyte specification in the presence of TGFB3 or BMP4 during stages 3 and 4 of differentiation respectively. General chondrocyte genes Sox9 (A) and collagen 2 (B), hypertrophic genes collagen 10 (C), Runx2 (D), osterix (E) and alkaline phosphatase (F), articular cartilage associated genes lubricin (G) and cartilage intermediate layer protein 2 (CILP2) (H), interzone-related (joint progenitor) genes GDF5 (I), ERG (J) and Wnt9a (K). Expression is copy number relative to TBP (n=3 to 8 biological replicates) and is compared to primary fetal chondrocytes (aged 16 to 19 weeks, n=4), primary healthy adult articular chondrocytes (n=2), and growth plate-like chondrocytes isolated from the iliac crest of an adult (n=1). T15 Mesoderm indicates day 15 hESC-derived paraxial mesoderm (DM+FGF-treated). Error bars indicate s.e.m.
FIG. 8. TGFβ1, TGFβ2, and TGFβ3 generated articular chondrocytes from hPSC-derived paraxial mesoderm. COL2A1, lubricin, and CILP2 gene expression after 12 weeks of micromass culture in the presence of TGF agonists as indicated (10 ng/ml). Values represent copy number mRNA relative to TBP. Error bars indicate s.e.m.
Previous studies have shown that TGFBeta/BMP signaling is required to generate chondrocyte progenitors from paraxial mesoderm. […] Following 10 days of TGFb3 treatment (day 25 total), cultures could be switched to media containing BMP4 or maintained in TGFb3 (stage 4) in order to specify subsets of chondrocytes (articular/non-hypertrophic or growth plate/hypertrophic). To determine the chondrocyte potential of the day 15 mesoderm populations, the cells were plated at high cell density in a 20 microliter volume on tissue culture treated Petri dishes for an hour (micromass) and then the ‘spot’ was submerged/covered with media. In our initial studies, the cells were ‘spotted’ in a media containing 2% fetal bovine serum. However, this short serum exposure can be omitted with no effects on cartilage formation at later stages, making this protocol optionally serum-free. After 2 to 3 days, serum-free media containing TGFb3 is added to the culture to generate chondrocyte progenitors. […]

[4] = IL1beta in presence of TGFbeta3
[5] = IL1β 10 ng/ml, week 10-12, absence of TGFb3
[6] = IL1β 10 ng/ml, week 10-12, absence of TGFbeta3

## Cc1ccc2nc(NC(=O)CSc3nc4c(c(=O)n3-c3ccccc3)SCC4)sc2c1 [IWP2, N-(6-Methyl-2-benzothiazolyl)-2-[(3,4,6,7-tetrahydro-4-oxo-3-phenylthieno[3,2-d]pyrimidin-2-yl)thio]-acetamide, reference compound]
[1]
  CD73 and CD105 expression with Wnt inhibition: improve the efficiency of CD73 and CD105 expression

## IL1beta: pro-inflammatory cytokine
[2]; [4]
  CILP2 expression: downregulated
  lubricin (PRG4) expression: downregulated
[2]; IL1beta with TGFbeta3 present
  ADAMTS5 expression: induced
[2]; IL1β 10 ng/ml, week 10-12
  ACAN expression: reduction
  COL2A1 expression: reduction
  vascular endothelial growth factor (VEGF) expression: increase
[2]; IL1β 10 ng/ml, week 10-12, 12-week tissues
  proteoglycans in the tissue (toluidine blue): noticeable loss
[2]; [5]
  ADAMTS4 expression: upregulation
  ADAMTS5 expression: upregulation
  MMP2 expression: upregulation
  MMP13 expression: upregulation
[2]; [6]
  CILP2 expression: downregulated
  lubricin (PRG4) expression: downregulated

## TGFbeta1: TGFbeta agonist
[3]
  CILP2 expression: upregulated
  COL2A1 expression: upregulated
  PRG4 (lubricin) expression: upregulated

B1: GDF5: growth and differentiation factor 5, BMP4 agonist (protein, UniProt P43026 382-501, looked up)
Growth/differentiation factor …: APLATRQGKRPSKNLKARCSRKALHVNFKDMGWDDWIIAPLEYEAFHCEGLCEFPLRSHLEPTNHAVIQTLMNSMDPESTPPTCCVPTRLSPISILFIDSANNVVYKQYEDMVVESCGCR
[3]; 13 week old tissues, GDF5 instead of BMP4
  tissue histology (toluidine blue), chondrocyte size: generates hypertrophic chondrocytes

B2: TGFbeta2: TGFbeta agonist (protein, UniProt P61812 303-414, looked up)
Transforming growth factor …: ALDAAYCFRNVQDNCCLRPLYIDFKRDLGWKWIHEPKGYNANFCAGACPYLWSSDTQHSRVLSLYNTINPEASASPCCVSQDLEPLTILYYIGKTPKIEQLSNMIVKSCKCS
[3]
  CILP2 expression: upregulated
  COL2A1 expression: upregulated
  PRG4 (lubricin) expression: upregulated
